Results on nine compounds are retold here after PMC11642016 (International Journal of Molecular Sciences, 2024).

As usually defined, the viability is a read-out of living cells in per cent, often relative to untreated cells.

Where two headings read alike, the source gives them in different places.

Series [1] concerns Fadu cells. The series is described as follows: CellTiter-Glo luminescent cell viability assay, Fadu. Conditions: 72 h, 72 h, mean ± SD, n = 2; for viability at 2.8 µM / viability at 8.3 µM / viability at 25 µM: Homo sapiens, FaDu; for viability at 2.8 µM: read-out: Cell Viability (% of Control) 2.8 µM, Fadu; for viability at 8.3 µM: read-out: Cell Viability (% of Control) 8.3 µM, Fadu; for viability at 25 µM: read-out: Cell Viability (% of Control) 25 µM, Fadu; for Cell Viability (% of Control) 2.8 µM / Cell Viability (% of Control) 8.3 µM / Cell Viability (% of Control) 25 µM: Fadu.

The subject of series [2] is PANC-1 cells. The series is described as follows: CellTiter-Glo luminescent cell viability assay, PANC-1. Conditions: 72 h, mean ± SD, n = 2; for viability at 2.8 µM / viability at 8.3 µM / viability at 25 µM: Homo sapiens, PANC-1, 72 h; for viability at 2.8 µM: read-out: Cell Viability (% of Control) 2.8 µM, PANC-1; for viability at 8.3 µM: read-out: Cell Viability (% of Control) 8.3 µM, PANC-1; for viability at 25 µM: read-out: Cell Viability (% of Control) 25 µM, PANC-1; for Cell Viability (% of Control) 2.8 µM / Cell Viability (% of Control) 8.3 µM / Cell Viability (% of Control) 25 µM: PANC-1. (In general: In ATP-based viability assays light output follows the ATP content of the culture.)
Description: Primary fibroblast cultures were prepared from human skin biopsies and maintained in DMEM supplemented with 10% FBS, 1% penicillin-streptomycin, and 1% MEM Non-Essential Amino Acids Solution (Thermo Fisher Scientific). […] All cell lines were cultured in a humidified atmosphere at 37 °C and 5% CO2, passaged twice a week, and the experiments were performed on cells between passage 5 and 15. The cell lines were routinely screened for the absence of mycoplasma infection (DAPI staining).
The effects of the synthesized compounds on cell viability were measured using the CellTiter-Glo® luminescent cell viability assay (Promega, Madison, WI, USA), according to the manufacturer’s instructions. Briefly, cells were seeded onto a flat-bottomed, white 96-well plate (BRANDplates, cat. no.: 781965)), with the following densities: PANC-1: 750 cells/well, Fadu: 2000 cells/well, primary fibroblasts: 2000 cells/well, HEK293T WT: 1000 cells/well, HEK293T CLPP^−/−: 2500 cells/well. After seeding, cells were incubated for a further 48 h before treatment. Cells were treated with the compounds for 72 h. Three concentrations (25.0 µM; 8.3 µM; 2.8 µM) were applied during the initial cell viability screening, while for the determination of dose–response curves, 1.5-fold serially diluted compound concentrations were applied (range: 26 µM–0.7 µM). After treatment, the luminescence signal was recorded using a microplate reader (BioTek Synergy 2 Multi-Mode Reader, BioTek, Winooski, VT, USA).
Data analysis was performed using GraphPad Prism 9.5.0 software (GraphPad Software, San Diego, CA, USA). […] The dose–response curves were generated by four-parameter nonlinear regression, and the IC50 values were determined as the means ± SEM of the best-fit values of 3 independent measurements. The R^2 values were consistently above 0.93, indicating a strong fit of the model to the experimental data (Supplementary S.89). […] Dunnett’s post hoc test was applied to adjust for multiple comparisons, minimizing the likelihood of false positive results. Assumptions for ANOVA, including normality (assessed via QQ plots) and homogeneity of variance (tested using the Brown–Forsythe test), were verified. The following significance levels were applied: * p < 0.05, ** p < 0.01, *** p < 0.001, **** p < 0.0001. […] The tumor selectivity of the compounds was quantitatively characterized by the selectivity index (SI). This parameter was calculated as the ratio of the average best-fit IC50 value for primary fibroblasts and the best-fit IC50 value for the corresponding tumor cells (PANC-1 or Fadu).

Take `O=C1C2=C(CCN(Cc3cccc(-n4cc(-c5ccccc5)nn4)c3)C2)N2CCN=C2N1Cc1cccc(C#CCO)c1` [4d]: in series [1] (first-set screening), the viability at 2.8 µM was determined as 37 ± 1%, the viability at 8.3 µM came out at 27 ± 3% and the viability at 25 µM was 23 ± 3%. Further, in series [2] (first-set screening), the viability at 2.8 µM stood at 74 ± 3%, the viability at 8.3 µM stood at 60 ± 2% and the viability at 25 µM came out at 53 ± 8%.
On to `O=C1C2=C(CCN(Cc3ccc(-n4cc(-c5ccccc5)nn4)cc3)C2)N2CCN=C2N1Cc1cccc(C#CCN2CCCCC2)c1` [40b], for which, in series [1] (second-set screening), the viability at 2.8 µM was 92 ± 9%, the viability at 8.3 µM was 60 ± 3% and the viability at 25 µM was found to be 24 ± 11%. In addition, in series [2] (second-set screening), the viability at 2.8 µM worked out at 125 ± 5%, the viability at 8.3 µM came out at 12 ± 10% and the viability at 25 µM is 1 ± 1%.
`NCC#Cc1cccc(CN2C(=O)C3=C(CCN(Cc4cccc(-n5cc(-[c-]6cccc6)nn5)c4)C3)N3CCN=C23)c1.[Fe+2].c1cc[cH-]c1` [4a]: in series [1] (first-set screening), the “Cell Viability (% of Control) 2.8 µM” value was 102 ± 1 % of Control, the “Cell Viability (% of Control) 8.3 µM” value is 77 ± 3 % of Control and the “Cell Viability (% of Control) 25 µM” value is 0 ± 0 % of Control. Further, in series [2] (first-set screening), the “Cell Viability (% of Control) 2.8 µM” value is listed as 91 ± 4 % of Control, the “Cell Viability (% of Control) 8.3 µM” value is 73 ± 9 % of Control and the “Cell Viability (% of Control) 25 µM” value is on record as 0 ± 0 % of Control.
Regarding `O=C1C2=C(CCN(Cc3ccc(-n4cc(-c5ccccc5)nn4)cc3)C2)N2CCN=C2N1Cc1cccc(C#CCN2CCOCC2)c1` [42b], in series [1] (second-set screening), the viability at 2.8 µM came to 108 ± 7%, the viability at 8.3 µM came out at 91 ± 12% and the viability at 25 µM stood at 13 ± 6%. Further, in series [2] (second-set screening), the viability at 2.8 µM came to 94 ± 5%, the viability at 8.3 µM came out at 82 ± 5% and the viability at 25 µM is 59 ± 3%.
With `O=C1C2=C(CCN(Cc3ccc(-n4cc(-c5ccccc5)nn4)cc3)C2)N2CCN=C2N1Cc1ccc(C#CCO)cc1` [1c], in series [1] (first-set screening), the viability at 2.8 µM is 79%, the viability at 8.3 µM stood at 71% and the viability at 25 µM came to 64 ± 2%. Besides, in series [2] (first-set screening), the viability at 2.8 µM stood at 95 ± 3%, the viability at 8.3 µM worked out at 87 ± 2% and the viability at 25 µM was 88 ± 6%.
Turning to `NCC#Cc1cccc(CN2C(=O)C3=C(CCN(Cc4ccc(-n5cc(-c6cc(F)cc(F)c6)nn5)cc4)C3)N3CCN=C23)c1` [36c], in series [1] (second-set screening), the viability at 2.8 µM came to 111 ± 10%, the viability at 8.3 µM amounted to 5 ± 5% and the viability at 25 µM amounted to 0%. For the same compound, in series [2] (second-set screening), the viability at 2.8 µM stood at 111 ± 8%, the viability at 8.3 µM is 0% and the viability at 25 µM amounted to 0%.
For the compound `O=C1C2=C(CCN(Cc3ccc(-n4cc(-c5ccccc5)nn4)cc3)C2)N2CCN=C2N1Cc1cccc(C#CCO)c1` [2d], in series [1] (first-set screening), the viability at 2.8 µM is 99 ± 7%, the viability at 8.3 µM came out at 90 ± 10% and the viability at 25 µM is 78 ± 6%. Moreover, in series [2] (first-set screening), the viability at 2.8 µM was found to be 100 ± 8%, the viability at 8.3 µM was determined as 87 ± 1% and the viability at 25 µM was 81%.
With `O=C1C2=C(CCN(Cc3ccc(-n4cc(-[c-]5cccc5)nn4)cc3)C2)N2CCN=C2N1Cc1cccc(C#CCN2CCOCC2)c1.[Fe+2].c1cc[cH-]c1` [42a], in series [1] (second-set screening), the “Cell Viability (% of Control) 2.8 µM” value is reported as 121 ± 3 % of Control, the “Cell Viability (% of Control) 8.3 µM” value is 112 ± 11 % of Control and the “Cell Viability (% of Control) 25 µM” value is 55 ± 12 % of Control. Moreover, in series [2] (second-set screening), the “Cell Viability (% of Control) 2.8 µM” value is 132 ± 4 % of Control, the “Cell Viability (% of Control) 8.3 µM” value is on record as 75 ± 31 % of Control and the “Cell Viability (% of Control) 25 µM” value was 58 ± 36 % of Control.
For the compound `NCc1cccc(CN2C(=O)C3=C(CCN(Cc4ccc(-n5cc(-[c-]6cccc6)nn5)cc4)C3)N3CCN=C23)c1.[Fe+2].c1cc[cH-]c1` [37a], in series [1] (second-set screening), the “Cell Viability (% of Control) 2.8 µM” value was 106 ± 10 % of Control, the “Cell Viability (% of Control) 8.3 µM” value is 70 ± 20 % of Control and the “Cell Viability (% of Control) 25 µM” value is recorded as 0 ± 0 % of Control. Moreover, in series [2] (second-set screening), the “Cell Viability (% of Control) 2.8 µM” value is listed as 118 ± 4 % of Control, the “Cell Viability (% of Control) 8.3 µM” value is on record as 123 ± 5 % of Control and the “Cell Viability (% of Control) 25 µM” value is on record as 16 ± 8 % of Control.
